Results published in US9302999B2, “Substituted triazoles as herbicides” (E. I. DU PONT DE NEMOURS AND COMPANY, priority 2012, dated 2016).

Legend:
Type in all cases: in vivo
[1] = tested on: ragweed (common ragweed, Ambrosia elation); test: Test C pre-/postemergence: ragweed
Method in brief: (§1)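 Preemergence on seeds in loam/sand, postemergence on 2–18 cm (1–4-leaf) plants in peat-based medium; compounds in non-phytotoxic solvent with surfactant. After 13–15 days in greenhouse, visual rating versus controls, 0 (no effect) to 100 (complete control).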

[2] = tested on: pigweed (Amaranthus retroflexus); test: Test A pre-/postemergence: pigweed
Method in brief: (§2)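 Plants in loam–sand blend were treated with test chemicals in non-phytotoxic solvent with surfactant, either as preemergence directed soil spray or postemergence at 2–10 cm, one- to two-leaf stage. After about ten days in greenhouse, injury was rated visually against untreated controls on a 0–100 scale (100 = complete control).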

[3] = tested on: johnsongrass (Sorghum halepense); test: Test C pre-/postemergence: johnsongrass
Method in brief: as §1

[4] = tested on: morningglory (Ipomoea coccinea); test: Test C pre-/postemergence: morningglory
Method in brief: as §1

[5] = tested on: ryegrass, Italian (Italian ryegrass, Lolium multiflorum); test: Test C pre-/postemergence: ryegrass, Italian
Method in brief: as §1

[6] = tested on: corn (Zea mays); test: Test A pre-/postemergence: corn; settings: for Corn plant response rating: Postemergence; for Plant response rating, Corn: Preemergence
Method in brief: as §2

[7] = tested on: large crabgrass (Digitaria sanguinalis); test: Test C pre-/postemergence: large crabgrass
Method in brief: as §1

[8] = tested on: corn (Zea mays); test: Test C pre-/postemergence: corn
Method in brief: as §1

[9] = tested on: wild oat (Avena fatua); test: Test C pre-/postemergence: wild oat
Method in brief: as §1

[10] = tested on: wheat (Triticum aestivum); test: Test A pre-/postemergence: wheat
Method in brief: as §2

[11] = tested on: chickweed (common chickweed, Stellaria media); test: Test C postemergence: chickweed
Method in brief: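 Visual 0–100 injury score vs untreated controls (0 none, 100 complete control), taken 13–15 d after treatment. Postemergence spray on potted plants, 2–18 cm, 1–4 leaves; greenhouse.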

[12] = tested on: morningglory (Ipomoea spp.); test: Test A pre-/postemergence: morningglory
Method in brief: as §2

[13] = Postemergence, 31 g ai/ha, scale 0 to 100 (0 no effect, 100 complete control)
[14] = Postemergence, 62 g ai/ha, scale 0 to 100 (0 no effect, 100 complete control)
[15] = Postemergence, 125 g ai/ha, scale 0 to 100, 0 no effect, 100 complete control
[16] = Postemergence, 250 g ai/ha, scale 0 to 100
[17] = Preemergence, 31 g ai/ha, scale of 0 to 100, 0 is no effect, 100 is complete control
[18] = Preemergence, 62 g ai/ha, scale of 0 to 100, 0 is no effect, 100 is complete control
[19] = Preemergence, 125 g ai/ha, scale 0 to 100, 0 no effect, 100 complete control
[20] = Preemergence, 250 g ai/ha, scale 0 to 100, 0 no effect, 100 complete control
[21] = Postemergence, 125 g ai/ha, 0 to 100 scale, 0 is no effect, 100 is complete control
[22] = Postemergence, 500 g ai/ha, visual rating on 0 to 100 scale (0 no effect, 100 complete control), approximately ten days
[23] = Preemergence, 125 g ai/ha, 0 to 100 scale where 0 is no effect and 100 is complete control
[24] = Preemergence, 500 g ai/ha, 0 to 100 scale (0 no effect, 100 complete control)

Fc1ccc(-n2nc(Cc3ccnc(C(F)(F)F)c3)c(OCC(F)(F)F)n2)cc1 [Compound 142]
Plant response rating, Ragweed [1, 13]: 65 | Plant response rating, Ragweed [1, 14]: 70 | Plant response rating, Ragweed [1, 15]: 75 | Plant response rating, Ragweed [1, 16]: 75 | Plant response rating, Ragweed [1, 17]: 40 | Plant response rating, Ragweed [1, 18]: 40 | Plant response rating, Ragweed [1, 19]: 70 | Plant response rating, Ragweed [1, 20]: 80 | Plant response rating, Pigweed [2, 21]: 100 | Pigweed plant response rating [2, 22]: 100 | Plant response rating, Pigweed [2, 23]: 100 | Plant response rating, Pigweed [2, 24]: 100 | Plant response rating, Johnsongrass [3, 13]: 55 | Plant response rating, Johnsongrass [3, 14]: 70 | Plant response rating, Johnsongrass [3, 15]: 80 | Plant response rating, Johnsongrass [3, 16]: 80 | Plant response rating, Johnsongrass [3, 17]: 90 | Plant response rating, Johnsongrass [3, 18]: 98 | Plant response rating, Johnsongrass [3, 19]: 100 | Plant response rating, Johnsongrass [3, 20]: 100 | Plant response rating, Morningglory [4, 13]: 60 | Plant response rating, Morningglory [4, 15]: 60 | Plant response rating, Morningglory [4, 16]: 80 | Plant response rating, Morningglory [4, 18]: 35 | Plant response rating, Ryegrass, Italian [5, 13]: 10 | Plant response rating, Ryegrass, Italian [5, 14]: 40 | Plant response rating, Ryegrass, Italian [5, 15]: 50 | Plant response rating, Ryegrass, Italian [5, 16]: 50 | Plant response rating, Ryegrass, Italian [5, 17]: 30 | Plant response rating, Ryegrass, Italian [5, 18]: 90 | Plant response rating, Ryegrass, Italian [5, 19]: 90 | Plant response rating, Ryegrass, Italian [5, 20]: 90 | Corn plant response rating ([6]; 125 g ai/ha, 0 to 100 scale, 0 is no effect, 100 is complete control): 50 | Corn plant response rating ([6]; 500 g ai/ha, visual rating on 0 to 100 scale (0 no effect, 100 complete control), approximately ten days): 80 | Plant response rating, Corn ([6]; 125 g ai/ha, 0 to 100 scale where 0 is no effect and 100 is complete control): 30 | Plant response rating, Corn ([6]; 500 g ai/ha, 0 to 100 scale (0 no effect, 100 complete control)): 80 | Plant response rating, Crabgrass, Large [7, 13]: 65 | Plant response rating, Crabgrass, Large [7, 14]: 80 | Plant response rating, Crabgrass, Large [7, 15]: 95 | Plant response rating, Crabgrass, Large [7, 16]: 95 | Plant response rating, Crabgrass, Large [7, 17]: 100 | Plant response rating, Crabgrass, Large [7, 18]: 100 | Plant response rating, Crabgrass, Large [7, 19]: 100 | Plant response rating, Crabgrass, Large [7, 20]: 100 | Plant response rating, Corn [8, 13]: 30 | Plant response rating, Corn [8, 14]: 35 | Plant response rating, Corn [8, 15]: 35 | Plant response rating, Corn [8, 16]: 45 | Plant response rating, Corn [8, 17]: 0 | Plant response rating, Corn [8, 18]: 5 | Plant response rating, Corn [8, 19]: 20 | Plant response rating, Corn [8, 20]: 30 | Plant response rating, Oat, Wild [9, 13]: 35 | Plant response rating, Oat, Wild [9, 14]: 45 | Plant response rating, Oat, Wild [9, 15]: 70 | Plant response rating, Oat, Wild [9, 16]: 70 | Plant response rating, Oat, Wild [9, 17]: 85 | Plant response rating, Oat, Wild [9, 18]: 85 | Plant response rating, Oat, Wild [9, 19]: 85 | Plant response rating, Oat, Wild [9, 20]: 90 | Plant response rating, Wheat [10, 21]: 80 | Wheat plant response rating [10, 22]: 80 | Plant response rating, Wheat [10, 23]: 70 | Plant response rating, Wheat [10, 24]: 80 | Plant response rating, Chickweed ([11]; 31 g ai/ha, scale 0 to 100 (0 no effect, 100 complete control)): 85 | Plant response rating, Chickweed ([11]; 62 g ai/ha, scale 0 to 100 (0 no effect, 100 complete control)): 98 | Plant response rating, Chickweed ([11]; 125 g ai/ha, scale 0 to 100, 0 no effect, 100 complete control): 98 | Plant response rating, Chickweed ([11]; 250 g ai/ha, scale 0 to 100): 98 | Plant response rating, Morningglory [12, 21]: 100 | Morningglory plant response rating [12, 22]: 100 | Plant response rating, Morningglory [12, 23]: 50 | Plant response rating, Morningglory [12, 24]: 80
